In article PMC11045757, “Group 3 medulloblastoma transcriptional networks collapse under domain specific EP300/CBP inhibition” (Nature Communications, 2024):

Tested on: 460 barcoded cancer cell lines
Experiment: PRISM pooled barcoded cancer cell line growth screen, 10-point dose-response, 5 days, AUC
Format: cell-based
Design: scale not given here
Description: Several small molecule inhibitors of distinct protein domains of EP300/CBP are available, though the majority target the histone acetyltransferase domain (HAT) or bromodomain (BRD)[5],[10],[21],[22]. […] We used these tools to investigate the relative contribution of the EP300/CBP BRD or HAT domain to tumor cell growth (Fig. 1a). To do so, we performed 10-point, dose-response growth assays using mixed pools of 460 barcoded cancer cell lines, over five days of treatment in vitro[33],[34]. Growth was measured using an area-under-the-curve (AUC) approach (Supplementary Table 1, Supplementary Fig. 1a). […] Given potential differences in compound penetration and solubility, and to compare the relative cell line and tumor-specific effects of these two compounds in assays performed non-simultaneously, we performed a median normalization of each dataset (Supplementary Table 2).

With `CO[C@H]1CC[C@H](n2c([C@@H]3CCCC(=O)N3c3ccc(F)c(F)c3)nc3cc(-c4c(C)noc4C)ccc32)CC1` [CCS1477] the AUC (MG63, Osteosarcoma) was 1, the AUC (MHHNB11, Neuroblastoma) was 0.7003 and the AUC (MIAPACA2, Pancreatic Cancer) was 0.9396. The AUC (MKN1, Gastric Cancer) was 0.9606, the AUC (MKN7, Gastric Cancer) was 0.7767 and the AUC (MKN45, Gastric Cancer) was 0.856. For the same molecule, the AUC (MOLM13, AML) was 0.3814, the AUC (MOLM16, AML) was 0.9868 and the AUC (MOLT3, T-acute leukemia) was 0.9924. It also gave an AUC (MOLT16, T-acute leukemia) of 0.8465, an AUC (MON, Rhabdoid) of 0.6598 and an AUC (NB1, Neuroblastoma) of 0.5737. For the same molecule, the AUC (NB4, AML) was 1, the AUC (NCIH23, Lung Cancer) was 0.9771 and the AUC (NCIH28, Lung Cancer) was 0.9928. It also gave an AUC (NCIH82, Lung Cancer) of 0.997, an AUC (NCIH196, Lung Cancer) of 0.842 and an AUC (NCIH211, Lung Cancer) of 0.8687. The AUC (NCIH226, Lung Cancer) was 0.9874, the AUC (NCIH292, Lung Cancer) was 0.9319 and the AUC (NCIH322, Lung Cancer) was 0.9929. The AUC (NCIH358, Lung Cancer) was 1, the AUC (NCIH441, Lung Cancer) was 0.7826 and the AUC (NCIH460, Lung Cancer) was 0.9935. The AUC (NCIH520, Lung Cancer) was 0.9951, the AUC (NCIH524, Lung Cancer) was 1 and the AUC (NCIH596, Lung Cancer) was 0.9011. The AUC (NCIH647, Lung Cancer) was 0.8544, the AUC (NCIH650, Lung Cancer) was 0.6419 and the AUC (NCIH661, Lung Cancer) was 1. The AUC (NCIH747, Colon/Colorectal Cancer) was 0.9981, the AUC (NCIH841, Lung Cancer) was 0.9721 and the AUC (NCIH1048, Lung Cancer) was 1. The AUC (NCIH1299, Lung Cancer) was 0.9947, the AUC (NCIH1341, Lung Cancer) was 0.9136 and the AUC (NCIH1373, Lung Cancer) was 0.9741. For the same molecule, the AUC (NCIH1437, Lung Cancer) was 0.9932, the AUC (NCIH1568, Lung Cancer) was 0.9412 and the AUC (NCIH1573, Lung Cancer) was 1. The AUC (NCIH1581, Lung Cancer) was 0.9081, the AUC (NCIH1648, Lung Cancer) was 0.7802 and the AUC (NCIH1792, Lung Cancer) was 0.8352. The AUC (NCIH1793, Lung Cancer) was 0.9609, the AUC (NCIH1838, Lung Cancer) was 0.9639 and the AUC (NCIH1930, Lung Cancer) was 0.9338. For the same molecule, the AUC (NCIH1944, Lung Cancer) was 0.9624, the AUC (NCIH1975, Lung Cancer) was 0.9927 and the AUC (NCIH2004RT, Rhabdoid) was 1. For the same molecule, the AUC (NCIH2052, Lung Cancer) was 0.9941, the AUC (NCIH2122, Lung Cancer) was 0.9334 and the AUC (NCIH2170, Lung Cancer) was 0.8755. The AUC (NCIH2172, Lung Cancer) was 0.8463, the AUC (NCIH2196, Lung Cancer) was 0.8725 and the AUC (NCIH2228, Lung Cancer) was 1. It also gave an AUC (NCIH2347, Lung Cancer) of 0.9989, an AUC (NCIH2444, Lung Cancer) of 1 and an AUC (NCO2, CML) of 0.9122. The AUC (NIHOVCAR3, Ovarian Cancer) was 0.9967, the AUC (NUDHL1, Lymphoma) was 0.5218 and the AUC (NUGC3, Gastric Cancer) was 0.905. The AUC (OAW42, Ovarian Cancer) was 0.9968, the AUC (OC314, Ovarian Cancer) was 0.7634 and the AUC (OC316, Ovarian Cancer) was 0.664. The AUC (OCIAML2, AML) was 0.5324, the AUC (OCIAML3, AML) was 0.8075 and the AUC (OCILY19, Lymphoma) was 0.7248. For the same molecule, the AUC (OCILY132, T-cell lymphoma) was 0.9273, the AUC (OCIM1, AML) was 0.8977 and the AUC (OE19, Esophageal Cancer) was 0.9508. For the same molecule, the AUC (OE21, Esophageal Cancer) was 0.9943, the AUC (ONCODG1, Ovarian Cancer) was 0.9442 and the AUC (ONS76, Medulloblastoma) was 0.6602. It also gave an AUC (OSRC2, Kidney Cancer) of 1, an AUC (OV56, Ovarian Cancer) of 1 and an AUC (OVCAR8, Ovarian Cancer) of 0.8858. For the same molecule, the AUC (OVISE, Ovarian Cancer) was 0.9803, the AUC (OVK18, Ovarian Cancer) was 0.5969 and the AUC (OVKATE, Ovarian Cancer) was 0.8791. It also gave an AUC (OVTOKO, Ovarian Cancer) of 0.9328, an AUC (PANC0203, Pancreatic Cancer) of 0.9609 and an AUC (PANC0327, Pancreatic Cancer) of 1. The AUC (PANC0403, Pancreatic Cancer) was 0.9938, the AUC (PANC0504, Pancreatic Cancer) was 0.8732 and the AUC (PANC0813, Pancreatic Cancer) was 1. It also gave an AUC (PATU8902, Pancreatic Cancer) of 0.9744, an AUC (PC3, Prostate Cancer) of 1 and an AUC (PECAPJ15, Head and Neck Cancer) of 0.9295. For the same molecule, the AUC (PF382, T-acute leukemia) was 0.7571, the AUC (PK1, Pancreatic Cancer) was 0.9937 and the AUC (PK59, Pancreatic Cancer) was 1. It also gave an AUC (PSN1, Pancreatic Cancer) of 0.7783, an AUC (RCM1, Colon/Colorectal Cancer) of 0.9586 and an AUC (RD, Rhabdomyosarcoma) of 0.8954. For the same molecule, the AUC (RDES, Ewing Sarcoma) was 0.5629, the AUC (RERFLCAI, Lung Cancer) was 0.937 and the AUC (RERFLCKJ, Lung Cancer) was 0.8827. It also gave an AUC (RH4, Rhabdomyosarcoma) of 0.8163, an AUC (RH28, Rhabdomyosarcoma) of 0.8877 and an AUC (RH36, Rhabdomyosarcoma) of 0.9558. The AUC (RHJT, Rhabdomyosarcoma) was 0.8764, the AUC (RI1, B-cell Lymphoma) was 0.7034 and the AUC (RL952, Endometrial/Uterine Cancer) was 0.9936. It also gave an AUC (RL, B-cell Lymphoma) of 0.8905, an AUC (RPMI8402, T-acute leukemia) of 0.8153 and an AUC (RT4, Bladder Cancer) of 0.9721. It also gave an AUC (RVH421, Melanoma) of 0.975, an AUC (S117, Thyroid Sarcoma) of 0.8697 and an AUC (SAOS2, Osteosarcoma) of 0.6766. The AUC (SCABER, Bladder Cancer) was 0.9263, the AUC (SCC9, Head and Neck Cancer) was 0.7896 and the AUC (SCC25, Head and Neck Cancer) was 0.9849. The AUC (SCLC21H, Lung Cancer) was 0.8733 and the AUC (SEM, B-cell Leukemia) was 0.851.
